Assay results published in patent US3984415A, “1-Nitrophenylpyrido [2,3-d] pyrimidine-2,4(1H,3H)-diones” (Hisamitsu Pharmaceutical Co., Inc., priority 1973, dated 1976).
Like-named read-outs stand apart in the source and are kept apart here.

Experiments:
[1] = Anti-inflammatory effect (carrageenin edema of hind paw); assay type: in vivo, Wistar-strain male rats; parameters: anti-inflammatory effect (inhibition percentage of carrageenin edema): scale not given here; details: for inhibition in vivo at 10 mg/kg / inhibition in vivo at 20 mg/kg / inhibition in vivo at 50 mg/kg / inhibition in vivo at 100 mg/kg: Rattus norvegicus, po, read-out: anti-inflammatory effect (inhibition percentage of carrageenin edema)
Protocol: 2. Anti-inflammatory effect
A group of five Wistar-strain male rats (100-150 g) were orally administered with each test compound suspended in 0.5 % tragacanth-saline solution. After 30 minutes 0.5 %-1.0 % carrageenin suspended in the water for injection was injected subcutaneously to a hind paw. After 3 hours the carrageenin edema was measured by volume and the inhibition percentage was determined with respect to the results for the control animals. The inhibition percentages were shown with the notations as follows: […]

[2] = Analgetic effect (acetic acid writhing syndrome); assay type: in vivo, dd-strain male mice; details: orally, mice; for ED50: Mus musculus, po, acetic acid writhing
Protocol: Each test compound suspended in 0.5 % tragacanth-saline solution was orally administered to dd-strain male mice (18-20 g). After one hour 0.6% acetic acid solution was intraperitoneally injected in a volume of 0.1 ml/10 g.

dd-strain male mice = details: 72 hours
Protocol: The lethal dose was estimated from the death of animals 72 hours after administration.

[3] = dose 10 mg/kg, orally, rats, 3 hours
[4] = dose 50 mg/kg, orally, rats, 3 hours

| SMILES | inhibition in vivo at 10 mg/kg [1, 3] | inhibition in vivo at 20 mg/kg ([1]; orally, rats, 3 hours) | inhibition in vivo at 50 mg/kg [1, 4] | inhibition in vivo at 100 mg/kg ([1]; orally, rats, 3 hours) | ED50 [2] | acute toxicity (lethal dose) (dd-strain male mice; p.o.) | acute toxicity (lethal dose) (dd-strain male mice; i.p.) | anti-inflammatory effect (inhibition percentage of carrageenin edema) [1, 4] | analgetic effect ED50, 95% C.L. ([2]; only the 95% confidential limits are printed) | inhibition in vivo at 10 mg/kg ([1]; 3 h) | inhibition in vivo at 50 mg/kg ([1]; 3 h) |
| --- | --- | --- | --- | --- | --- | --- | --- | --- | --- | --- | --- |
| C=CCn1c(=O)c2cccnc2n(-c2cccc([N+](=O)[O-])c2)c1=O [Compound 9, 1-(m-nitrophenyl)-3-allylpyrido[2,3-d]pyrimidine-2,4(1H,3H)-dione] | > 61% | 46 to 60% | > 61% | > 61% | 2.6 mg/kg | > 2000 mg/kg | – | – | – | – | – |
| CCCn1c(=O)c2cccnc2n(-c2cccc([N+](=O)[O-])c2)c1=O [Compound 4] | 46 to 60% | 46 to 60% | 31 to 45% | 46 to 60% | 2.6 mg/kg | > 2000 mg/kg | 1000 mg/kg | – | – | – | – |
| O=c1c2cccnc2n(-c2cccc([N+](=O)[O-])c2)c(=O)n1CC1CC1 [O --CH2] | > 61% | > 61% | > 61% | > 61% | 0.12 mg/kg | – | – | – | – | – | – |
| CC(C)=CCn1c(=O)c2cccnc2n(-c2cccc([N+](=O)[O-])c2)c1=O [Compound 10] | 31 to 45% | 31 to 45% | > 61% | 46 to 60% | 0.43 mg/kg | > 2000 mg/kg | – | – | – | – | – |
| CC(C)n1c(=O)c2cccnc2n(-c2cccc([N+](=O)[O-])c2)c1=O [Compound 5] | 46 to 60% | 46 to 60% | 46 to 60% | > 61% | 2.15 mg/kg | – | > 1000 mg/kg | – | – | – | – |
| CC(=O)OCCn1c(=O)c2cccnc2n(-c2cccc([N+](=O)[O-])c2)c1=O [Compound 21] | – | – | 16 to 30% | 31 to 45% | 0.16 mg/kg | 2000 mg/kg | > 1000 mg/kg | – | – | – | – |
| O=c1c2cccnc2n(-c2cccc([N+](=O)[O-])c2)c(=O)n1Cc1ccccc1 [O --Ch2] | 31 to 45% | 46 to 60% | 46 to 60% | > 61% | 1.7 mg/kg | – | – | – | – | – | – |
| Cn1c(=O)c2cccnc2n(-c2cccc(Cl)c2)c1=O [--CH3, reference compound] | 31 to 45% | 46 to 60% | 46 to 60% | 46 to 60% | 7.1 mg/kg | > 1000 mg/kg | > 1000 mg/kg | – | – | – | – |
| Cn1c(=O)c2cccnc2n(-c2cccc([N+](=O)[O-])c2)c1=O [Compound 2, 1-(m-nitrophenyl)-3-methylpyrido[2,3-d]pyrimidine-2,4(1H,3H)-dione] | 46 to 60% | 46 to 60% | > 61% | > 61% | 0.175 mg/kg | – | – | – | – | – | – |
| CCn1c(=O)c2cccnc2n(-c2cccc(C(F)(F)F)c2)c1=O [--C2 H5, reference compound] | 46 to 60% | 46 to 60% | > 61% | > 61% | 10 mg/kg | 665 mg/kg | 600 mg/kg | – | – | – | – |
| O=c1c2cccnc2n(-c2cccc([N+](=O)[O-])c2)c(=O)n1CC(F)(F)F [Compound 16, 1-(m-nitrophenyl)-3-(2,2,2-trifluoroethyl)pyrido[2,3-d]pyrimidine-2,4(1H,3H)-dione] | 46 to 60% | > 61% | 46 to 60% | 46 to 60% | 1.28 mg/kg | > 2000 mg/kg | > 1000 mg/kg | – | – | – | – |
| O=c1c2cccnc2n(-c2cccc([N+](=O)[O-])c2)c(=O)n1CCCO [Compound 19] | 31 to 45% | 46 to 60% | 46 to 60% | > 61% | ~1 mg/kg | > 2000 mg/kg | > 1000 mg/kg | – | – | – | – |
| CCn1c(=O)c2cccnc2n(-c2cccc([N+](=O)[O-])c2)c1=S [Compound 34] | 46 to 60% | – | 46 to 60% | – | ~0.2 mg/kg | > 2000 mg/kg | > 1000 mg/kg | – | – | – | – |
| CCOCCn1c(=O)c2cccnc2n(-c2cccc([N+](=O)[O-])c2)c1=O [Compound 23] | 31 to 45% | 46 to 60% | 46 to 60% | 31 to 45% | 0.168 mg/kg | – | > 1000 mg/kg | – | – | – | – |
| CCCCC1C(=O)N(c2ccccc2)N(c2ccccc2)C1=O [phenylbutazone, reference compound] | < 15% | – | 31 to 45% | – | 290 mg/kg | – | – | – | – | – | – |
| Cn1c(=O)c2cccnc2n(-c2cccc([N+](=O)[O-])c2)c1=S [Compound 33, 1-(m-nitrophenyl)-3-methyl-2-thio-4-oxo-1,2,3,4-tetrahydropyrido[2,3-d]pyrimidine] | 46 to 60% | – | – | – | – | > 2000 mg/kg | > 1000 mg/kg | + ++ | 0.23 to 1.55 mg/kg | – | – |
| CCCn1c(=O)c2cccnc2n(-c2cccc(Br)c2)c1=O [--CH2 CH2 CH3, reference compound] | 46 to 60% | 31 to 45% | 46 to 60% | > 61% | 20 mg/kg | – | > 1000 mg/kg | – | – | – | – |
| O=C(Cn1c(=O)c2cccnc2n(-c2cccc([N+](=O)[O-])c2)c1=O)c1ccc(Cl)cc1 [O --CH2 CO] | – | – | – | < 15% | > 100 mg/kg | > 2000 mg/kg | > 1000 mg/kg | – | – | – | – |
| O=C(O)c1ccccc1Nc1cccc(C(F)(F)F)c1 [flufenamic acid, reference compound] | < 15% | – | 16 to 30% | – | 180 mg/kg | – | 300 to 1000 mg/kg | – | – | – | – |
| CN1C(=O)CN=C(c2ccccc2)c2cc(Cl)ccc21 [diazepam, reference compound] | – | – | – | – | – | – | – | – | – | < 15% | 16 to 30% |
| CC(C)Cn1c(=O)c2cccnc2n(-c2cccc([N+](=O)[O-])c2)c1=O [Compound 7] | – | 31 to 45% | 31 to 45% | 31 to 45% | 3.1 mg/kg | > 2000 mg/kg | 1000 mg/kg | – | – | – | – |
| CCn1c(=O)c2cccnc2n(-c2cccc([N+](=O)[O-])c2)c1=O [Compound 3, 1-(m-nitrophenyl)-3-ethylpyrido[2,3-d]pyrimidine-2,4(1H,3H)-dione] | > 61% | > 61% | > 61% | – | 0.113 mg/kg | – | – | – | – | – | – |
| O=c1c2cccnc2n(-c2cccc([N+](=O)[O-])c2)c(=S)n1CC(F)(F)F [Compound 39] | > 61% | – | 46 to 60% | – | 0.23 mg/kg | > 2000 mg/kg | > 1000 mg/kg | – | – | – | – |
| C#CCn1c(=O)c2cccnc2n(-c2cccc([N+](=O)[O-])c2)c1=O [Compound 12] | 46 to 60% | 46 to 60% | 46 to 60% | > 61% | 1.15 mg/kg | > 2000 mg/kg | > 1000 mg/kg | – | – | – | – |
| O=c1c2cccnc2n(-c2cccc([N+](=O)[O-])c2)c(=O)n1CCF [Compound 15] | > 61% | 46 to 60% | > 61% | 46 to 60% | ~0.01 mg/kg | 2000 mg/kg | – | – | – | – | – |
| O=c1c2cccnc2n(-c2cccc([N+](=O)[O-])c2)c(=O)n1CCCl [Compound 14] | 46 to 60% | > 61% | 46 to 60% | > 61% | 0.19 mg/kg | > 2000 mg/kg | > 1000 mg/kg | – | – | – | – |
| O=c1c2cccnc2n(-c2cccc([N+](=O)[O-])c2)c(=O)n1CCO [Compound 18, 1-(m-nitrophenyl)-3-(2-hydroxyethyl)pyrido[2,3-d] pyrimidine-2,4(1H,3H)-dione] | – | – | 31 to 45% | 31 to 45% | 0.42 mg/kg | > 2000 mg/kg | > 1000 mg/kg | – | – | – | – |
| CCOC(=O)Cn1c(=O)c2cccnc2n(-c2cccc([N+](=O)[O-])c2)c1=O [Compound 27] | 31 to 45% | 31 to 45% | 46 to 60% | 46 to 60% | 45 mg/kg | > 2000 mg/kg | 1000 mg/kg | – | – | – | – |
